Laboratory results reported in patent US8916702B2 (priority 2012, dated 2014).

System: HCV pseudoparticles (genotype 1a HCV E1 and E2 envelope, H77C isolate)
Test: microbe, parasite or virus in culture
Format: cell-based
Conditions: Hepatitis C virus, Huh-7, 48 h, HCV pseudoparticle infection of Huh7 cells, luciferase 2 days after infection; average of duplicates

SMILES | EC50
COC(=O)[C@H](CNC(=O)C(=O)NCc1cc(F)cc(F)c1)NC(=O)c1ccc(Nc2nc(NC3(c4ccc(Cl)cc4)CC3)nc(OCC(F)(F)F)n2)cc1 [Compound 1138] | 0.81 nM
C=Cc1ccc(NC(=O)C(=O)NCC(C)(C)CNC(=O)c2ccc(Nc3nc(NC4(c5ccc(Cl)cc5)CC4)nc(OCC(F)(F)F)n3)cc2)cc1 [Compound 1604] | 0.02 nM
COC(=O)[C@H](CNC(=O)C(=O)Nc1cc[nH]n1)NC(=O)c1ccc(Nc2nc(NC3(c4ccc(Cl)cc4)CC3)nc(OCC(F)(F)F)n2)cc1 [Compound 1245] | 1.69 nM

Same assay, conditions: Hepatitis C virus, Huh-7, 48 h, HCV pseudoparticles (genotype 1a, H77C) in Huh7 cells; average of duplicate; luciferase 2 days after infection

SMILES | EC50
CC(C)(CNC(=O)C(=O)Nc1ccc2cccnc2c1)CNC(=O)c1ccc(Nc2nc(NC3(c4ccc(Cl)cc4)CC3)nc(OCC(F)(F)F)n2)cc1 [Compound 3034] | 0.04 nM
Cn1ccnc1NC(=O)C(=O)NCC(C)(C)CNC(=O)c1ccc(Nc2nc(NC3(c4ccc(Cl)cc4)CC3)nc(OCC(F)(F)F)n2)cc1 [Compound 3379] | 0.14 nM

Same assay, conditions: Hepatitis C virus, Huh-7, 48 h, HCV pseudoparticles, Huh7 cells, luciferase 2 days after infection; average of duplicates

SMILES | EC50
COC(=O)[C@H](CNC(=O)C(=O)Nc1cccc(-c2noc(C)n2)c1)NC(=O)c1ccc(Nc2nc(NC3(c4ccc(Cl)cc4)CC3)nc(OCC(F)(F)F)n2)cc1 [Compound 3730] | 0.6 nM

Same assay, conditions: Hepatitis C virus, Huh-7, 48 h, read-out: Activity (EC50 class), HCV pseudoparticle infection of Huh7 cells, luciferase 2 days after infection; EC50 expressed as class A/B

SMILES | EC50
CNC(=O)C(=O)NC[C@H](NC(=O)c1ccc(Nc2nc(NC3(c4ccc(Cl)cc4)CC3)nc(OCC(F)(F)F)n2)cc1)C(=O)OC [Compound 1003, (S)-methyl 2-(4-(4-(1-(4-chlorophenyl)cyclopropylamino)-6-(2,2,2-trifluoroethoxy)-1,3,5-triazin-2-ylamino)benzamido)-3-(2-(methylamino)-2-oxoacetamido)propanoate] | 0.01 to 10 nM
COC(=O)[C@H](CNC(=O)C(=O)Nc1cccc(F)c1)NC(=O)c1ccc(Nc2nc(NC3(c4ccc(Cl)cc4)CC3)nc(OCC(F)(F)F)n2)cc1 [Compound 1249] | 0.01 to 10 nM
COC(=O)[C@H](CCNC(=O)C(=O)NCc1cccc(F)c1F)NC(=O)c1ccc(Nc2nc(NC3(c4ccc(Cl)cc4)CC3)nc(OCC(F)(F)F)n2)cc1 [Compound 1160] | 0.01 to 10 nM
O=C(NC[C@H](NC(=O)c1ccc(Nc2nc(NC3(c4ccc(Cl)cc4)CC3)nc(OCC(F)(F)F)n2)cc1)C(=O)O)C(=O)NC1CCCCCC1 [Compound 1175] | 0.01 to 10 nM
COC(=O)[C@H](CNC(=O)C(=O)NCc1cc(F)cc(F)c1)NC(=O)c1ccc(Nc2nc(NC3(c4ccc(Cl)cc4)CC3)nc(OCC(F)(F)F)n2)cc1 [Compound 1138] | 0.01 to 10 nM
O=C(NCC1CC1)C(=O)NC1CCCC1CNC(=O)c1ccc(Nc2nc(NC3(c4ccc(Cl)cc4)CC3)nc(OCC(F)(F)F)n2)cc1 (stereo not shown) [Compound 1462] | 0.01 to 10 nM
COC(=O)[C@H](CCNC(=O)C(=O)Nc1cccc(C(F)(F)F)c1)NC(=O)c1ccc(Nc2nc(NC3(c4ccc(Cl)cc4)CC3)nc(OCC(F)(F)F)n2)cc1 [Compound 1229] | 0.01 to 10 nM
C=Cc1ccc(NC(=O)C(=O)NCC(C)(C)CNC(=O)c2ccc(Nc3nc(NC4(c5ccc(Cl)cc5)CC4)nc(OCC(F)(F)F)n3)cc2)cc1 [Compound 1604] | 0.01 to 10 nM
O=C(NCC[C@H](NC(=O)c1ccc(Nc2nc(NC3(c4ccc(Cl)cc4)CC3)nc(OCC(F)(F)F)n2)cc1)C(=O)O)C(=O)NCC1(CN2CCOCC2)CC1 [Compound 1426] | 0.01 to 10 nM
COC(=O)[C@H](CNC(=O)C(=O)Nc1cc[nH]n1)NC(=O)c1ccc(Nc2nc(NC3(c4ccc(Cl)cc4)CC3)nc(OCC(F)(F)F)n2)cc1 [Compound 1245] | 0.01 to 10 nM
O=C(NCC[C@H](NC(=O)c1ccc(Nc2nc(NC3(c4ccc(Cl)cc4)CC3)nc(OCC(F)(F)F)n2)cc1)C(=O)O)C(=O)NCc1cc(F)ccc1F [Compound 1189] | 0.01 to 10 nM
CCC(CC)NC(=O)C(=O)NCC[C@H](NC(=O)c1ccc(Nc2nc(NC3(c4ccc(Cl)cc4)CC3)nc(OCC(F)(F)F)n2)cc1)C(=O)O [Compound 1126] | 0.01 to 10 nM
COC(=O)[C@H](CCNC(=O)C(=O)NC1CCCCC1O)NC(=O)c1ccc(Nc2nc(NC3(c4ccc(Cl)cc4)CC3)nc(OCC(F)(F)F)n2)cc1 (stereo partly shown) [Compound 1098] | 0.01 to 10 nM
O=C(NCC[C@H](NC(=O)c1ccc(Nc2nc(NC3(c4ccc(Cl)cc4)CC3)nc(OCC(F)(F)F)n2)cc1)C(=O)O)C(=O)NC1CCCCC1O (stereo partly shown) [Compound 1113] | 0.01 to 10 nM
COC(=O)[C@H](CCNC(=O)C(=O)NCC1CCCOC1)NC(=O)c1ccc(Nc2nc(NC3(c4ccc(Cl)cc4)CC3)nc(OCC(F)(F)F)n2)cc1 (stereo partly shown) [Compound 1198] | 0.01 to 10 nM
CCC(CC)NC(=O)C(=O)NC[C@H](NC(=O)c1ccc(Nc2nc(NC3(c4ccc(Cl)cc4)CC3)nc(OCC(F)(F)F)n2)cc1)C(=O)O [Compound 1091] | 0.01 to 10 nM
CC1(C)CC(NC(=O)C(=O)NCC[C@H](NC(=O)c2ccc(Nc3nc(NC4(c5ccc(Cl)cc5)CC4)nc(OCC(F)(F)F)n3)cc2)C(=O)O)CC(C)(C)C1 [Compound 1115] | 0.01 to 10 nM
COC(=O)[C@@H](CCNC(=O)C(=O)Nc1ccccc1-c1ccccc1)NC(=O)c1ccc(Nc2nc(NC3(c4ccc(Cl)cc4)CC3)nc(OCC(F)(F)F)n2)cc1 [Compound 1528] | 0.01 to 10 nM
O=C(NCc1c(F)cccc1F)C(=O)NC[C@H](NC(=O)c1ccc(Nc2nc(NC3(c4ccc(Cl)cc4)CC3)nc(OCC(F)(F)F)n2)cc1)C(=O)O [Compound 1170] | 0.01 to 10 nM

Same assay, conditions: Hepatitis C virus, Huh-7, 48 h, read-out: Activity (EC50 class), HCV pseudoparticles, Huh7 cells, luciferase 2 days after infection; average of duplicates

SMILES | EC50
COc1ccc2nc(NC(=O)C(=O)NCC(C)(C)CNC(=O)c3ccc(Nc4nc(NC5(c6ccc(Cl)cc6)CC5)nc(OCC(F)(F)F)n4)cc3)sc2n1 [Compound 3803] | 0.01 to 10 nM
COC(=O)[C@H](CNC(=O)C(=O)Nc1cccc(-c2noc(C)n2)c1)NC(=O)c1ccc(Nc2nc(NC3(c4ccc(Cl)cc4)CC3)nc(OCC(F)(F)F)n2)cc1 [Compound 3730] | 0.01 to 10 nM
Cc1ccc(-c2cccc(NC(=O)C(=O)NCC[C@H](NC(=O)c3ccc(Nc4nc(NC5(c6ccc(Cl)cc6)CC5)nc(OCC(F)(F)F)n4)cc3)C(=O)O)c2)cc1 [Compound 3644] | 0.01 to 10 nM
Nc1ccc(NC(=O)C(=O)NC[C@H](NC(=O)c2ccc(Nc3nc(NC4(c5ccc(Cl)cc5)CC4)nc(OCC(F)(F)F)n3)cc2)C(=O)O)nc1 [Compound 3761] | 0.01 to 10 nM
Cc1ccc(NC(=O)C(=O)NCC(C)(C)CNC(=O)c2ccc(Nc3nc(NC4(c5ccc(Cl)cc5)CC4)nc(OCc4ccc(C(C)C)cc4)n3)cc2F)cc1 [Compound 3827, N^1-(3-(4-((4-((1-(4-chlorophenyl)cyclopropyl)amino)-6-((4-isopropylbenzyl)oxy)-1,3,5-triazin-2-yl)amino)-2-fluorobenzamido)-2,2-dimethylpropyl)-N^2-(p-tolyl)oxalamide] | 0.01 to 10 nM
COC(=O)[C@H](CCNC(=O)C(=O)Nc1cccc(-c2nnnn2C)c1)NC(=O)c1ccc(Nc2nc(NC3(c4ccc(Cl)cc4)CC3)nc(OCC(F)(F)F)n2)cc1 [Compound 3607] | 0.01 to 10 nM
Cc1ccc(NC(=O)C(=O)NCC(C)(C)CNC(=O)c2ccc(Nc3nc(NC4(c5ccc(Cl)cc5)CC4)nc(OCc4cccc(F)c4)n3)cc2)cc1 [Compound 3846] | 0.01 to 10 nM
COC(=O)[C@H](CNC(=O)C(=O)Nc1cccc(OC(F)(F)F)c1)NC(=O)c1ccc(Nc2nc(NC3(c4ccc(Cl)cc4)CC3)nc(OCC(F)(F)F)n2)cc1 [Compound 3693] | 0.01 to 10 nM

Same assay, conditions: Hepatitis C virus, Huh-7, read-out: Activity (EC50 class), HCV pseudoparticles (genotype 1a, H77C) in Huh7 cells; EC50 expressed as class A/B

SMILES | EC50
N#Cc1ccc(NC(=O)C(=O)NC/C(=N/C(=O)c2ccc(Nc3nc(NC4(c5ccc(Cl)cc5)CC4)nc(OCC(F)(F)F)n3)cc2)C(=O)O)cc1 [Compound 3167] | 0.01 to 10 nM
COC(=O)[C@H](CCNC(=O)C(=O)Nc1ccc(OCC(F)(F)F)cc1)NC(=O)c1ccc(Nc2nc(NC3(c4ccc(Cl)cc4)CC3)nc(OCC(F)(F)F)n2)cc1 [Compound 3125] | 0.01 to 10 nM
COC(=O)[C@H](CNC(=O)C(=O)Nc1ccc(-c2ncco2)cc1)NC(=O)c1ccc(Nc2nc(NC3(c4ccc(Cl)cc4)CC3)nc(OCC(F)(F)F)n2)cc1 [Compound 3209] | 0.01 to 10 nM
CC(C)(CNC(=O)C(=O)NS(=O)(=O)C1CC1)CNC(=O)c1ccc(Nc2nc(NC3(c4ccc(Cl)cc4)CC3)nc(OCC(F)(F)F)n2)cc1 [Compound 3032] | 0.01 to 10 nM
COC(=O)[C@H](CCNC(=O)C(=O)Nc1ccc(-n2ccnc2)cc1)NC(=O)c1ccc(Nc2nc(NC3(c4ccc(Cl)cc4)CC3)nc(OCC(F)(F)F)n2)cc1 [Compound 3300] | 10 to 1000 nM
COC(=O)[C@H](CCNC(=O)C(=O)Nc1ccc(N2CCOCC2)cc1)NC(=O)c1ccc(Nc2nc(NC3(c4ccc(Cl)cc4)CC3)nc(OCC(F)(F)F)n2)cc1 [Compound 3112] | 0.01 to 10 nM
NC(=O)C(=O)N(CCO)CCCNC(=O)c1ccc(Nc2nc(NC3(c4ccc(Cl)cc4)CC3)nc(OCC(F)(F)F)n2)cc1 [Compound 3498] | 0.01 to 10 nM
COC(=O)[C@@H](CCNC(=O)C(=O)Nc1ccc(Oc2ccc(C(C)(C)C)cc2)nc1)NC(=O)c1ccc(Nc2nc(NC3(c4ccc(Cl)cc4)CC3)nc(OCC(F)(F)F)n2)cc1 [Compound 3581] | 0.01 to 10 nM
COC(=O)[C@H](CNC(=O)C(=O)Nc1ccc(-n2nc(C)cc2C)cc1)NC(=O)c1ccc(Nc2nc(NC3(c4ccc(Cl)cc4)CC3)nc(OCC(F)(F)F)n2)cc1 [Compound 3109] | 0.01 to 10 nM
CC(C)(CNC(=O)C(=O)Nc1ccc2cccnc2c1)CNC(=O)c1ccc(Nc2nc(NC3(c4ccc(Cl)cc4)CC3)nc(OCC(F)(F)F)n2)cc1 [Compound 3034] | 0.01 to 10 nM
O=C(NC/C(=N/C(=O)c1ccc(Nc2nc(NC3(c4ccc(Cl)cc4)CC3)nc(OCC(F)(F)F)n2)cc1)C(=O)O)C(=O)Nc1ccc(Cc2ccncc2)cc1 [Compound 3162] | 0.01 to 10 nM
CC(C)CNC(=O)C(=O)NCC(C)CNC(=O)c1ccc(Nc2nc(NC3(c4ccc(Cl)cc4)CC3)nc(OCC(F)(F)F)n2)cc1 (stereo not shown) [Compound 3476] | 0.01 to 10 nM
CN(CCCN(C)C(=O)c1ccc(Nc2nc(NC3(c4ccc(Cl)cc4)CC3)nc(OCC(F)(F)F)n2)cc1)C(=O)C(=O)N1CCCCC1 [Compound 3432] | 10 to 1000 nM
CC(C)(CNC(=O)C(=O)Nc1c(F)cc(F)cc1F)CNC(=O)c1ccc(Nc2nc(NC3(c4ccc(Cl)cc4)CC3)nc(OCC(F)(F)F)n2)cc1 [Compound 3416] | 0.01 to 10 nM
CCc1ccc(NC(=O)C(=O)NC[C@H](NC(=O)c2ccc(Nc3nc(NC4(c5ccc(Cl)cc5)CC4)nc(OCC(F)(F)F)n3)cc2)C(=O)OC)cc1 [Compound 3213] | 0.01 to 10 nM
COc1cc(F)ccc1NC(=O)C(=O)NCC(C)(C)CNC(=O)c1ccc(Nc2nc(NC3(c4ccc(Cl)cc4)CC3)nc(OCC(F)(F)F)n2)cc1 [Compound 3075] | 0.01 to 10 nM
Cn1ccnc1NC(=O)C(=O)NCC(C)(C)CNC(=O)c1ccc(Nc2nc(NC3(c4ccc(Cl)cc4)CC3)nc(OCC(F)(F)F)n2)cc1 [Compound 3379] | 0.01 to 10 nM
NC(=O)C(=O)N1CCCC(CNC(=O)c2ccc(Nc3nc(NC4(c5ccc(Cl)cc5)CC4)nc(OCC(F)(F)F)n3)cc2)C1 (stereo not shown) [Compound 3480] | 0.01 to 10 nM
COC(=O)[C@H](CCNC(=O)C(=O)Nc1ccc(-n2cncn2)cc1)NC(=O)c1ccc(Nc2nc(NC3(c4ccc(Cl)cc4)CC3)nc(OCC(F)(F)F)n2)cc1 [Compound 3130] | 0.01 to 10 nM
